Results reported in publication PMC6158189, “A pharmacological probe identifies cystathionine β-synthase as a new negative regulator for ferroptosis” (Cell Death & Disease, 2018).
Values joined by “and” are separate entries in the source; they are usually repeats but may differ in a detail not shown here. Equal entries are not always repeated. Where two headings read alike, the source gives them in different places.

Biological target: T1, hCBS (Homo sapiens, UniProt P35520)
T1 construct: GST (N); made in house; host or cells: E. coli BL21
T1 sequence (P35520 1-551): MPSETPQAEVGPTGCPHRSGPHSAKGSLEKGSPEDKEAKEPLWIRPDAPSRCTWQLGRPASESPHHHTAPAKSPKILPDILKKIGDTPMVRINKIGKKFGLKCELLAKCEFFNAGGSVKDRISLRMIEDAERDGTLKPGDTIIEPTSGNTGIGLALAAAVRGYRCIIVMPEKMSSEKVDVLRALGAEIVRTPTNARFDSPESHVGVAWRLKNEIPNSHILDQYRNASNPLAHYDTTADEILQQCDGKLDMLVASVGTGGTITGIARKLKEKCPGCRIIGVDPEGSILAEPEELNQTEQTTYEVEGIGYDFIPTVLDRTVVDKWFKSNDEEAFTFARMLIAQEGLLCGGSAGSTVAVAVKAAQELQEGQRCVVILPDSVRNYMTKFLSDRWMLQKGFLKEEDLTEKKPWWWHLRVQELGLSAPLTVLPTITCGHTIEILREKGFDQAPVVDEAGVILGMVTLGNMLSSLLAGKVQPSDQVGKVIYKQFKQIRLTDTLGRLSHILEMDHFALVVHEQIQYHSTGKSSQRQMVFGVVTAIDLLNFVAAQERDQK
Assay: enzyme kinetics of hCBS inhibition
Assay type: biochemical
Protocol: Figure S2. The mode of action of CH004 in inhibiting hCBS. […] After incubation with DMSO or CH004 at 10 μM for 40 min, hCBS (20 μM) was diluted 200-fold and the activity was measured according to the standard assay protocol (Materials and Methods). The data are presented as percentages of control (CTR; DMSO, 100%) and shown as means ± SDs (n = 5). The effects of 0.05 and 10 μM CH004 on hCBS (100 nM) without pre-incubation were defined as positive control (PC) and negative control (NC), respectively. (B) Inhibition of hCBS by CH004 as a function of PLP concentration with Cys (20 mM) together with Hcys (10 mM) as substrates (non-competitive inhibition constant αKi=15.2 ± 4.9 μM). (C) Inhibition of hCBS by CH004 as a function of Cys concentration in the presence of 100 μM PLP and the absence of Hcys (mixed inhibition constant αKi=26.4 ± 8 μM). (D) Inhibition of hCBS by CH004 as a function of Hcys concentration in the presence of 20 mM Cys and 100 μM PLP (mixed inhibition constant αKi’=7.2 ± 1.6 μM). Each point in the Lineweaver-Burk plots represents the means of triplicate. The αKi or αKi’ values were calculated by using the non-linear fitting method for enzyme kinetics in GraphPad Prism 5. (E) Surface Plasmon Resonance assays analysis of the binding of CH004 to hCBS. Solutions with various concentrations of CH004 (0.097–12.5 µM) were injected into the chamber with a hCBS-coated sensor chip. The change of response units is shown over time. Dissociation constants for CH004 (KD) were calculated by using Biacore evaluation software (Materials and Methods).

`Cn1nc(Cc2ccccc2)nc2c(=O)n(C)c(=O)nc1-2` [CH004, 3-benzyl-1,6-dimethylpyrimido[5,4-e][1,2,4]triazine-5,7(1H,6H)-dione] was tested, and the “mode of inhibition toward Cys and Hcys” value was “mixed-type inhibition”, the “mode of inhibition toward PLP” value was “noncompetitive inhibition” and the Ki (100 μM PLP, absence of Hcys, read-out: αKi toward Cys (mixed inhibition constant)) was ~26.4 µM and 26.4 µM. The Ki (20 mM Cys, 100 μM PLP, read-out: αKi’ toward Hcys (mixed inhibition constant)) was ~7.2 µM and 7.2 µM and the Ki (Cys 20 mM and Hcys 10 mM as substrates, read-out: αKi toward PLP (non-competitive inhibition constant)) was ~15.2 µM and 15.2 µM.
